System: lashes and adjacent hairs of the eyelids
Test: Observation of eyelash and hair growth in glaucoma patients treated in one eye
Type: in vivo
Description: In the course of treating patients having glaucoma, treatment may only be appropriate in one eye. […] The lash appearance on the lids of the treated eyes would have appeared quite attractive if it represented a bilateral phenomenon. As a result of its asymmetric nature, the long lashes on one side could be construed as disturbing from a cosmetic standpoint. A systemic examination was preformed as a result of the asymmetric phenomenon. It soon became apparent that this altered appearance was not an isolated finding.
The changes in the lashes were apparent on gross inspection in several patients once attention was focused on the issue. In those with light colored hair and lashes, the differences were only seen easily with the aid of the high magnification and lighting capabilities of the slit lamp biomicroscope. In the course of glaucoma follow-up examination, attention is generally immediately focused on the eye itself. As a result of the high power magnification needed only one eye is seen at a time and the eye is seen at a high enough power that the lashes are not in focus. At these higher powers, any lash asymmetry between the two eyes is not likely to be noticed except by careful systematic comparison of the lashes and adjacent hairs of the eyelids of the two eyes. […]

CCNC(=O)CCC/C=C\C[C@@H]1[C@@H](/C=C/[C@@H](O)CCc2ccccc2)[C@H](O)C[C@@H]1O [bimatoprost]
differences in lashes and adjacent hairs of the treated side (all patients taking the drug on a unilateral basis for longer than 6 months): Definite differences could be identified to varying degrees
lash appearance in treated eye versus non-treated eye (glaucoma patient treated in one eye only): longer, thicker, and fuller in the treated eye than in the non-treated eye
